Test results taken from ChEMBL document CHEMBL3596116, “Conformational analysis of peramivir reveals critical differences between free and enzyme-bound states” (Medchemcomm, 2014).

Biological target: Neuraminidase (Influenza A virus, UniProt B4URF0)
Design: species or system unidentified adenovirus

Sequence of Neuraminidase (B4URF0 whole entry): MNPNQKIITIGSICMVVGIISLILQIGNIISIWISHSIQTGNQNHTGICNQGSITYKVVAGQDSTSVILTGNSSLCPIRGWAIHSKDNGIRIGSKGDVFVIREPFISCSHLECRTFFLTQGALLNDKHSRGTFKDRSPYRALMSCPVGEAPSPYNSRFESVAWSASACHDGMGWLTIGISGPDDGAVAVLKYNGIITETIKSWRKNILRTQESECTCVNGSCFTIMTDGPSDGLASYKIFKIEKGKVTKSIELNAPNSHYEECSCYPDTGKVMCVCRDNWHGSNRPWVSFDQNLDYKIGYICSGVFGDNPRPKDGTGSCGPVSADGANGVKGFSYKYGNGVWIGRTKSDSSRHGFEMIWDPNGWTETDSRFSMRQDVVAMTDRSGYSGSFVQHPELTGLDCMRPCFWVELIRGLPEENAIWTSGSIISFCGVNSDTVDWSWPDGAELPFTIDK

For `CCC(CC)[C@H](NC(C)=O)[C@@H]1[C@H](O)[C@@H](C(=O)O)C[C@H]1NC(=N)N` [PERAMIVIR ANHYDROUS], the IC50 was 0.1 nM.
